# US20250230173A1, “SALT FORMS OF AN AXL INHIBITOR” (Arcus Biosciences, Inc., priority 2023, published 2025)
# “Also recorded” adds a separate entry of the source.
# What was measured:
# Type in all cases: physicochemical
# [1] = Stability study of selected solid forms, XRPD after 7 days of storage
# Source text: XRPD diffractograms were collected with a Bruker, D2 Phaser or Panalytical Empyrean X-ray diffractometer. Diffractograms can be read by one of skill in the art, for example, to determine if a chemical sample is the substantially the same, different, or represents a mixture of forms. When a diffractogram is “substantially in accordance” as another diffractogram, a person of skill in the art would regard the samples resulting in the two diffractograms as the same form or same mixture of forms, taking into account minor variations for instrumentation, conditions, and the like.
# A stability study comparing amorphous freebase Compound I, Freebase Form II, 2-Napsylate Form I, Fumarate Form I, Succinate Form I, and Camsylate Form I was conducted. HPLC measurements were taken after 7 days of storage at the indicated conditions.
# [2] = Stability study of selected solid forms, HPLC purity after 7 days of storage
# [3] = Long term and accelerated stability of 2-Napsylate Form I; conditions: for Changes on storage: as of 3 months
# Method: Samples of 2-Napsylate Form I were further tested for long term and accelerated stability. Samples of the compound are stored at conditions of either 2-8° C. (long term) or 25° C. and 60% RH (accelerated). Stability samples are packaged in double low-density polyethylene (LDPE) bags in a high-density polyethylene (HDPE) outer container.
# Samples are tested for appearance, assay, chemical purity, water content, microbial limits, and crystallinity.
# [4] = Form conversion of 2-Napsylate crystalline forms on vacuum drying or in slurry (XRPD)
# [5] = Hygroscopicity by DVS, XRPD before and after; conditions: two DVS cycles, 0-90% RH
# Method: Hygroscopicity of 2-Napsylate Forms I and VI were assessed using DVS. Samples of 2-Napyslate Form I and Form VI (7-20 mg) were placed separately into a tared sample chamber and automatically weighed.
# [6] = Stability of 2-Napsylate Form I under variable humidity (XRPD); conditions: RH 10% to 90% at 25° C., every 10% RH, 4 hr equilibration at each step
# Method: 2-Napsylate Form I was used to test form changes as a function of RH from 10% to 90% at 25° C. The XRPD data was collected every 10% RH (FIG. 20) with an equilibration time of 4 hr at each step.
# [7] = Storage at 40° C. and 75% RH for one week (XRPD)
# Method: The stability of 2-Napsylate Form I was compared with the stability of 2-[…] Form VI when stored at 40° C. and 75% RH for a period of one week.
smiles,measurement,setting,value
Cc1cccnc1-c1ccc(-c2n[nH]c3ncc(-c4ccc5c(c4)CC[C@@H](N4C6COCC4C6)CC5)cc23)nc1 [2-Napsylate Form I],XRPD (solid form),"[1]; 7 days, 25° C.",Form I
same,XRPD (solid form),"[1]; 7 days, 40° C. / 75% RH",Form I
same,XRPD (solid form),"[1]; 7 days, 60° C.",Form I
same,XRPD (solid form),[1]; T0,Form I
same,HPLC Purity (A %),"[2]; 7 days, 25° C.",99.82 A %
same,HPLC Purity (A %),"[2]; 7 days, 40° C. / 75% RH",99.35 A %
same,HPLC Purity (A %),"[2]; 7 days, 60° C.",99.21 A %
same,Chemical and physical stability compared to the other forms tested,[2]; Example 6 stability study,better chemical and physical stability; also recorded: improved chemical and physical stability
same,HPLC Purity (A %),[2]; T0,99.82 A %
same,Assay ‘anhydrous and solvent-free basis’ (% w/w),"[3]; 2-8° C., 1 month",96.9 % w/w
same,Crystallinity,"[3]; 2-8° C., 1 month",Crystalline
same,Total impurity (% a/a),"[3]; 2-8° C., 1 month",1.7 % a/a
same,Water content (% w/w),"[3]; 2-8° C., 1 month",1.2 % w/w
same,Assay ‘anhydrous and solvent-free basis’ (% w/w),"[3]; 2-8° C., 3 months",96.1 % w/w
same,Crystallinity,"[3]; 2-8° C., 3 months",Crystalline
same,Total impurity (% a/a),"[3]; 2-8° C., 3 months",1.7 % a/a
same,Water content (% w/w),"[3]; 2-8° C., 3 months",1.8 % w/w
same,Assay ‘anhydrous and solvent-free basis’ (% w/w),"[3]; 2-8° C., 6 months",97.7 % w/w
same,Crystallinity,"[3]; 2-8° C., 6 months",Crystalline
same,Total impurity (% a/a),"[3]; 2-8° C., 6 months",1.4 % a/a
same,Water content (% w/w),"[3]; 2-8° C., 6 months",2.1 % w/w
same,Assay ‘anhydrous and solvent-free basis’ (% w/w),"[3]; 2-8° C., Initial",95.8 % w/w
same,Crystallinity,"[3]; 2-8° C., Initial",Crystalline
same,Total impurity (% a/a),"[3]; 2-8° C., Initial",1.5 % a/a
same,Water content (% w/w),"[3]; 2-8° C., Initial",0.87 % w/w
same,Assay ‘anhydrous and solvent-free basis’ (% w/w),"[3]; 25° C. and 60% RH, 1 month",96.8 % w/w
same,Total impurity (% a/a),"[3]; 25° C. and 60% RH, 1 month",1.8 % a/a
same,Water content (% w/w),"[3]; 25° C. and 60% RH, 1 month",1.2 % w/w
same,Assay ‘anhydrous and solvent-free basis’ (% w/w),"[3]; 25° C. and 60% RH, 3 months",95.2 % w/w
same,Total impurity (% a/a),"[3]; 25° C. and 60% RH, 3 months",1.8 % a/a
same,Water content (% w/w),"[3]; 25° C. and 60% RH, 3 months",1.6 % w/w
same,Assay ‘anhydrous and solvent-free basis’ (% w/w),"[3]; 25° C. and 60% RH, 6 months",96.2 % w/w
same,Total impurity (% a/a),"[3]; 25° C. and 60% RH, 6 months",1.6 % a/a
same,Water content (% w/w),"[3]; 25° C. and 60% RH, 6 months",2.1 % w/w
same,Assay ‘anhydrous and solvent-free basis’ (% w/w),"[3]; 25° C. and 60% RH, Initial",95.8 % w/w
same,Total impurity (% a/a),"[3]; 25° C. and 60% RH, Initial",1.5 % a/a
same,Water content (% w/w),"[3]; 25° C. and 60% RH, Initial",0.87 % w/w
same,Changes on storage,[3]; accelerated (25° C. and 60% RH),no significant changes
same,Changes on storage,[3]; long term (2-8° C.),no significant changes
same,Crystal form after prolonged slurry,"[4]; slurry at 50° C., ACN/DMSO (11:1), after 20 days",Form IV + extra XRPD
same,Form change after DVS testing (XRPD),[5],no form change
same,Form change as a function of RH (XRPD),[6],No form change was observed
same,Stability on storage (XRPD),[7],stable
Cc1cccnc1-c1ccc(-c2n[nH]c3ncc(-c4ccc5c(c4)CC[C@@H](N4C6COCC4C6)CC5)cc23)nc1 [Form X],Crystal form after drying,[4]; drying at 40° C. under vacuum (overnight),amorphous after
